Measured values: ChEMBL document CHEMBL4507287, “Data for DCP probe MRL-650” (2021)

Experiments:
[1] = biological target: Serine/threonine-protein kinase N1 (Homo sapiens) (UniProt Q16512); conditions: Compound concentration 1000.0 nM
[2] = biological target: Cyclin-dependent kinase 3 (Homo sapiens) (UniProt Q00526); conditions: Compound concentration 1000.0 nM
[3] = biological target: Calcium/calmodulin-dependent protein kinase type 1B (Homo sapiens) (UniProt Q6P2M8); conditions: Compound concentration 1000.0 nM
[4] = biological target: Phosphatidylinositol 3-kinase C2 domain-containing subunit gamma (Homo sapiens) (UniProt O75747); conditions: Compound concentration 1000.0 nM
[5] = biological target: Mitogen-activated protein kinase kinase kinase 20 (Homo sapiens) (UniProt Q9NYL2); conditions: Compound concentration 1000.0 nM
[6] = biological target: Calcium/calmodulin-dependent protein kinase type II subunit gamma (Homo sapiens) (UniProt Q13555); conditions: Compound concentration 1000.0 nM
[7] = biological target: Inhibitor of nuclear factor kappa-B kinase subunit epsilon (Homo sapiens) (UniProt Q14164); conditions: Compound concentration 1000.0 nM
[8] = biological target: Activin receptor type-1 (Homo sapiens) (UniProt Q04771); conditions: Compound concentration 1000.0 nM
[9] = biological target: 5-hydroxytryptamine receptor 5A (Homo sapiens) (UniProt P47898); conditions: Compound concentration 10.0 uM
[10] = biological target: Mitogen-activated protein kinase kinase kinase 11 (Homo sapiens) (UniProt Q16584); conditions: Compound concentration 1000.0 nM
[11] = biological target: Dual serine/threonine and tyrosine protein kinase (Homo sapiens) (UniProt Q6XUX3); conditions: Compound concentration 1000.0 nM
[12] = biological target: Cyclin-dependent kinase 15 (Homo sapiens) (UniProt Q96Q40); conditions: Compound concentration 1000.0 nM
[13] = biological target: Myosin-IIIb (Homo sapiens) (UniProt Q8WXR4); conditions: Compound concentration 1000.0 nM
[14] = biological target: G protein-coupled receptor kinase 3 (Homo sapiens) (UniProt P35626); conditions: Compound concentration 1000.0 nM
[15] = biological target: Mitogen-activated protein kinase kinase kinase kinase 3 (Homo sapiens) (UniProt Q8IVH8); conditions: Compound concentration 1000.0 nM
[16] = biological target: Rhodopsin kinase GRK1 (Homo sapiens) (UniProt Q15835); conditions: Compound concentration 1000.0 nM
[17] = system: Epidermal growth factor receptor (Homo sapiens), P00533 [UNDEFINED MUTATION]; conditions: Compound concentration 1000.0 nM
[18] = biological target: Ephrin type-B receptor 2 (Homo sapiens) (UniProt P29323); conditions: Compound concentration 1000.0 nM
[19] = biological target: Serine/threonine-protein kinase PLK4 (Homo sapiens) (UniProt O00444); conditions: Compound concentration 1000.0 nM
[20] = biological target: Peripheral plasma membrane protein CASK (Homo sapiens) (UniProt O14936); conditions: Compound concentration 1000.0 nM
[21] = system: Receptor-type tyrosine-protein kinase FLT3 (Homo sapiens), P36888 [UNDEFINED MUTATION]; conditions: Compound concentration 1000.0 nM
[22] = system: Proto-oncogene tyrosine-protein kinase receptor Ret (Homo sapiens), P07949 [V804L]; conditions: Compound concentration 1000.0 nM
[23] = biological target: Serine/threonine-protein kinase mTOR (Homo sapiens) (UniProt P42345); conditions: Compound concentration 1000.0 nM
[24] = biological target: Ribosomal protein S6 kinase alpha-6 (Homo sapiens) (UniProt Q9UK32); conditions: Compound concentration 1000.0 nM
[25] = biological target: Inhibitor of nuclear factor kappa-B kinase subunit alpha (Homo sapiens) (UniProt O15111); conditions: Compound concentration 1000.0 nM
[26] = biological target: Serine/threonine-protein kinase RIO2 (Homo sapiens) (UniProt Q9BVS4); conditions: Compound concentration 1000.0 nM
[27] = biological target: Dual specificity protein kinase TTK (Homo sapiens) (UniProt P33981); conditions: Compound concentration 1000.0 nM
[28] = biological target: Dual specificity mitogen-activated protein kinase kinase 1 (Homo sapiens) (UniProt Q02750); conditions: Compound concentration 1000.0 nM
[29] = biological target: Phosphatidylinositol 5-phosphate 4-kinase type-2 gamma (Homo sapiens) (UniProt Q8TBX8); conditions: Compound concentration 1000.0 nM
[30] = biological target: Cyclin-dependent kinase 16 (Homo sapiens) (UniProt Q00536); conditions: Compound concentration 1000.0 nM
[31] = biological target: Tyrosine-protein kinase JAK3 (Homo sapiens) (UniProt P52333); conditions: Compound concentration 1000.0 nM
[32] = biological target: G protein-coupled receptor kinase 4 (Homo sapiens) (UniProt P32298); conditions: Compound concentration 1000.0 nM
[33] = biological target: Ephrin type-A receptor 5 (Homo sapiens) (UniProt P54756); conditions: Compound concentration 1000.0 nM
[34] = biological target: Non-receptor tyrosine-protein kinase TYK2 (Homo sapiens) (UniProt P29597); conditions: Compound concentration 1000.0 nM
[35] = biological target: MAP kinase-interacting serine/threonine-protein kinase 2 (Homo sapiens) (UniProt Q9HBH9); conditions: Compound concentration 1000.0 nM
[36] = system: Proto-oncogene tyrosine-protein kinase receptor Ret (Homo sapiens), P07949 [V804M]; conditions: Compound concentration 1000.0 nM
[37] = biological target: Ephrin type-A receptor 3 (Homo sapiens) (UniProt P29320); conditions: Compound concentration 1000.0 nM
[38] = biological target: NT-3 growth factor receptor (Homo sapiens) (UniProt Q16288); conditions: Compound concentration 1000.0 nM
[39] = biological target: MAP/microtubule affinity-regulating kinase 4 (Homo sapiens) (UniProt Q96L34); conditions: Compound concentration 1000.0 nM
[40] = biological target: Tyrosine-protein kinase Fyn (Homo sapiens) (UniProt P06241); conditions: Compound concentration 1000.0 nM
[41] = biological target: Cyclin-dependent kinase 4 (Homo sapiens) (UniProt P11802); conditions: Compound concentration 1000.0 nM
[42] = biological target: Dual specificity tyrosine-phosphorylation-regulated kinase 1B (Homo sapiens) (UniProt Q9Y463); conditions: Compound concentration 1000.0 nM
[43] = biological target: RAC-gamma serine/threonine-protein kinase (Homo sapiens) (UniProt Q9Y243); conditions: Compound concentration 1000.0 nM
[44] = biological target: Ephrin type-B receptor 3 (Homo sapiens) (UniProt P54753); conditions: Compound concentration 1000.0 nM
[45] = biological target: Bone morphogenetic protein receptor type-1B (Homo sapiens) (UniProt O00238); conditions: Compound concentration 1000.0 nM

Receptor-type tyrosine-protein kinase FLT3 (Homo sapiens), P36888 [UNDEFINED MUTATION], sequence (P36888 whole entry, looked up, stated change not applied): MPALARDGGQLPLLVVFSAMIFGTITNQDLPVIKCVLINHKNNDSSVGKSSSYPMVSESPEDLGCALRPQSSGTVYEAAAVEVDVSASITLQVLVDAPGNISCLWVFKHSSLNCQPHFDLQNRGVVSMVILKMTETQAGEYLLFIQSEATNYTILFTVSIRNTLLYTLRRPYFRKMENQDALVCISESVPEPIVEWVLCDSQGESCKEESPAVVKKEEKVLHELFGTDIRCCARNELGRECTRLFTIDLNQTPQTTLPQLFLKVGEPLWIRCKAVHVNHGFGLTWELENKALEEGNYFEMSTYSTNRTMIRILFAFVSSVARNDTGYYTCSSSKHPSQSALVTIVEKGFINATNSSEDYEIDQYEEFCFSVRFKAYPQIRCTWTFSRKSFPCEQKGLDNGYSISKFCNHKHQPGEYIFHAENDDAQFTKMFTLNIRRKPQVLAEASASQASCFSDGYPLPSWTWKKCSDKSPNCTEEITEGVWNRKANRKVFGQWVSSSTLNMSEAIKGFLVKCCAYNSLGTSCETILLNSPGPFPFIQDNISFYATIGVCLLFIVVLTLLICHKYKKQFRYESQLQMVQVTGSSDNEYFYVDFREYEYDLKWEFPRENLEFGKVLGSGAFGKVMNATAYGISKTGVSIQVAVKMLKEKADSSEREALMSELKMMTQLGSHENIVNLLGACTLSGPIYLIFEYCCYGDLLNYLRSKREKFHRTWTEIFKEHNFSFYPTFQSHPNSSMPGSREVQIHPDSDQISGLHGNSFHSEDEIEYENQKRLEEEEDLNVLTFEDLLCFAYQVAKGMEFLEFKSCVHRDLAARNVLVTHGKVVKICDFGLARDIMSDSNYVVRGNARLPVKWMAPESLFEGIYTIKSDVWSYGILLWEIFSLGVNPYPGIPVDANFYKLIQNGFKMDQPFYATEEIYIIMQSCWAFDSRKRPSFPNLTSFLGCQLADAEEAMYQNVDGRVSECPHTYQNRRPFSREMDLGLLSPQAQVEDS
Tyrosine-protein kinase Fyn (Homo sapiens), sequence (P06241 2-537 limits assumed): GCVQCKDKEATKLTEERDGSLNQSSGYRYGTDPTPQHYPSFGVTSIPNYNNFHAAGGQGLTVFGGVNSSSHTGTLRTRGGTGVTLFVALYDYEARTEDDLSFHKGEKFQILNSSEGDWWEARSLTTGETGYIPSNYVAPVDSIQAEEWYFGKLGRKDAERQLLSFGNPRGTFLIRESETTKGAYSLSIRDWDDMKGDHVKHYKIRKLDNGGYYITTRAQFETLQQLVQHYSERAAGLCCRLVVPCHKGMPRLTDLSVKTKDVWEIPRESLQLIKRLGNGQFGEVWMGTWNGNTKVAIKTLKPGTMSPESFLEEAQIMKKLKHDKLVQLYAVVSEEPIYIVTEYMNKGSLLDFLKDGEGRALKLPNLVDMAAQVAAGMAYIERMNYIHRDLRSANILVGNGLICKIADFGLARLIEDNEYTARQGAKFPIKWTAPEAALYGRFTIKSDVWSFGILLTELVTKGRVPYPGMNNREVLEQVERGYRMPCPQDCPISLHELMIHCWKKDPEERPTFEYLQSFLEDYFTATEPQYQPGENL
Calcium/calmodulin-dependent protein kinase type 1B (Homo sapiens), sequence (Q6P2M8 whole entry, the tested form may be a part): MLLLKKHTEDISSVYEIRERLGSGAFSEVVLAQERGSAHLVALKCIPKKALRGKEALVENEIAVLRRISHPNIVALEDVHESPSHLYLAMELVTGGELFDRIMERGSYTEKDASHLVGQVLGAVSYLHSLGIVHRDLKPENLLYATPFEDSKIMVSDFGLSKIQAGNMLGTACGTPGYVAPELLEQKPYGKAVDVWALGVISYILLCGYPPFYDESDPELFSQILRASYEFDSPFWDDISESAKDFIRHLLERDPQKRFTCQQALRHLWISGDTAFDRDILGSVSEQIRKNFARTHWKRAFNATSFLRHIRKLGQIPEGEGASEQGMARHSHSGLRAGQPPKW
Cyclin-dependent kinase 3 (Homo sapiens), sequence (Q00526 whole entry, looked up): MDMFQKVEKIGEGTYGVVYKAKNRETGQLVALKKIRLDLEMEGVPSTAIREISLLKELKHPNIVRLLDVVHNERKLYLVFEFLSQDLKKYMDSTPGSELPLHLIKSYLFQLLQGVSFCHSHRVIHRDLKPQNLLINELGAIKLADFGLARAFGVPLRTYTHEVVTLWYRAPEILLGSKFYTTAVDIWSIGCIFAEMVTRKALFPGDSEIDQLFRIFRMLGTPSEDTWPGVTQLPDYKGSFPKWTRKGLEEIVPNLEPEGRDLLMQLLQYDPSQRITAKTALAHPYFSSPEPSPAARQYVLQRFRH
NT-3 growth factor receptor (Homo sapiens), sequence (Q16288 32-839 limits assumed): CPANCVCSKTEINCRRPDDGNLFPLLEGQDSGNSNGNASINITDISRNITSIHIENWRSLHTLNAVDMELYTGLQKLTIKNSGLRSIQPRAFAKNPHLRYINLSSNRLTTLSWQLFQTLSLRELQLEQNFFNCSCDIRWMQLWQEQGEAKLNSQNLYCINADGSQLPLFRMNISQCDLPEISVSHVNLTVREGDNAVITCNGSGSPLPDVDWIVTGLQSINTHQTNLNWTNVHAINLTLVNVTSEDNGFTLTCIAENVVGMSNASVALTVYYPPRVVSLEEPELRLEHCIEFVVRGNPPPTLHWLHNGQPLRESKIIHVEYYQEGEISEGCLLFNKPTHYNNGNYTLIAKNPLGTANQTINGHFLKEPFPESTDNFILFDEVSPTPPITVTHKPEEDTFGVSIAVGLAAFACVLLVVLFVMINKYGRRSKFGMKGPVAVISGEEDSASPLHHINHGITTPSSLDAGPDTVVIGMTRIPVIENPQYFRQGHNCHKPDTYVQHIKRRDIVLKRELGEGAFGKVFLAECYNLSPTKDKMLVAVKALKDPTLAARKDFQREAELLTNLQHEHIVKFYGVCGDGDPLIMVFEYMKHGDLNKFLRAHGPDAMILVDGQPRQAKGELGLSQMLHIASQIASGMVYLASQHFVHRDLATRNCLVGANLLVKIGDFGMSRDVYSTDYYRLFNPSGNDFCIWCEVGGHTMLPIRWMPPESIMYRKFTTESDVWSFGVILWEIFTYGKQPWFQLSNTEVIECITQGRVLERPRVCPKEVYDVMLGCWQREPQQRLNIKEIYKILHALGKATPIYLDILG
G protein-coupled receptor kinase 4 (Homo sapiens), sequence (P32298 whole entry, looked up): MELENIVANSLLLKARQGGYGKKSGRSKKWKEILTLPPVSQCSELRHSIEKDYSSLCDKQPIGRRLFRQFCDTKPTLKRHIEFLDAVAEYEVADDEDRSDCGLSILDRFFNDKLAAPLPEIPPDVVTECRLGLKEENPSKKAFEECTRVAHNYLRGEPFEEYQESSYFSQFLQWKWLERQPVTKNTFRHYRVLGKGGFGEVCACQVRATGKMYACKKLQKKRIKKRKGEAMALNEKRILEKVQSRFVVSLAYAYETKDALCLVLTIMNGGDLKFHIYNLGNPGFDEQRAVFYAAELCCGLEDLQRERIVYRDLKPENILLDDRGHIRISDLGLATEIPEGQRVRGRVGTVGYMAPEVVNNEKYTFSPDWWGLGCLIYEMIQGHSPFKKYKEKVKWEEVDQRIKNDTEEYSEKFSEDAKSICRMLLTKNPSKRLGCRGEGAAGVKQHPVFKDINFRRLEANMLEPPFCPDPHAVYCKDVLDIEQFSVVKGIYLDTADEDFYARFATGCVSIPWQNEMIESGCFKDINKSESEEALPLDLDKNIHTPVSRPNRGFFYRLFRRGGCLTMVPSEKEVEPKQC
Myosin-IIIb (Homo sapiens), sequence (Q8WXR4 whole entry): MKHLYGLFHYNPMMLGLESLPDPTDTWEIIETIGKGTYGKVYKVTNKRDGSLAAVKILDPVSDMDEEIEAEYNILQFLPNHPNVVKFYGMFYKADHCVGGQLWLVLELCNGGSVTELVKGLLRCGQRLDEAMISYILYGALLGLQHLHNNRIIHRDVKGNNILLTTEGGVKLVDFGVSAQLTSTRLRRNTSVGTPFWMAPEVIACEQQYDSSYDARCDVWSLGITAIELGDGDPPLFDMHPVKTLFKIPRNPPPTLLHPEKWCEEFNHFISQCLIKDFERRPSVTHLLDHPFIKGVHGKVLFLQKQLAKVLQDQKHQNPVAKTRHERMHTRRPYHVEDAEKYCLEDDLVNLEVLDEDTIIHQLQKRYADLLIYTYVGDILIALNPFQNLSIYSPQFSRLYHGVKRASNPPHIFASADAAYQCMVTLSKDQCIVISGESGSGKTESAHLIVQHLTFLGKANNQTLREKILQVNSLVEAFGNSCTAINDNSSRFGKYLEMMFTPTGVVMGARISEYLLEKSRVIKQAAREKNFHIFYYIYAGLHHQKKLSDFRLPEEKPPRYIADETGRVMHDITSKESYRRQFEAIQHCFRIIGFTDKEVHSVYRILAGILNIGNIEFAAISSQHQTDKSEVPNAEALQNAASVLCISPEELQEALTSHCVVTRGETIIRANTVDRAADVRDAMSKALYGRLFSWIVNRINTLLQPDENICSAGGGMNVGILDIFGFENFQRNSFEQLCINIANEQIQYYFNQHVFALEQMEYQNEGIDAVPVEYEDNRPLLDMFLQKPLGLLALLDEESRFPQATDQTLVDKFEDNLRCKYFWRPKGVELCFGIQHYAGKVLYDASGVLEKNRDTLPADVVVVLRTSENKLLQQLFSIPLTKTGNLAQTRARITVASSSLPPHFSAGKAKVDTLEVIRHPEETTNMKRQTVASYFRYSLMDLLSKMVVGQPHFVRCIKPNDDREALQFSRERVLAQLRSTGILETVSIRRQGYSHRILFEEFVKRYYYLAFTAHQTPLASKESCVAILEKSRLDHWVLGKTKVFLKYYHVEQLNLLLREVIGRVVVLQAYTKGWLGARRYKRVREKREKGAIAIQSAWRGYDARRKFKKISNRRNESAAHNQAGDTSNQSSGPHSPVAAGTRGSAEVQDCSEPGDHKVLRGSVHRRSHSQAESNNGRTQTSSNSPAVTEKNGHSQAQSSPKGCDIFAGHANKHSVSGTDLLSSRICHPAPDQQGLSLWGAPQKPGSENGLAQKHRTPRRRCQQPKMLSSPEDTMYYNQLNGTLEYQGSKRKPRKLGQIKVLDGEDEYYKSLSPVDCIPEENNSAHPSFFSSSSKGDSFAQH

## CC(=O)Nc1c(C(C)=O)c(=O)n(C)c2nc(-c3ccc(Cl)cc3Cl)c(-c3ccc(Cl)cc3)cc12 [NAPHTHYRIDINONE]
[1]
  residual activity: 92%
[2]
  residual activity: 100%
[3]
  residual activity: 100%
[4]
  residual activity: 63%
[5]
  residual activity: 100%
[6]
  residual activity: 100%
[7]
  residual activity: 80%
[8]
  residual activity: 100%
[9]
  inhibition: 14.3%
[10]
  residual activity: 100%
[11]
  residual activity: 100%
[12]
  residual activity: 100%
[13]
  residual activity: 100%
[14]
  residual activity: 99%
[15]
  residual activity: 100%
[16]
  residual activity: 78%
[17]
  residual activity: 86%
[18]
  residual activity: 100%
[19]
  residual activity: 100%
[20]
  residual activity: 83%
[21]
  residual activity: 100%
[22]
  residual activity: 100%
[23]
  residual activity: 100%
[24]
  residual activity: 100%
[25]
  residual activity: 100%
[26]
  residual activity: 100%
[27]
  residual activity: 100%
[28]
  residual activity: 100%
[29]
  residual activity: 100%
[30]
  residual activity: 100%
[31]
  residual activity: 100%
[32]
  residual activity: 100%
[33]
  residual activity: 100%
[34]
  residual activity: 100%
[35]
  residual activity: 100%
[36]
  residual activity: 100%
[37]
  residual activity: 100%
[38]
  residual activity: 100%
[39]
  residual activity: 100%
[40]
  residual activity: 100%
[41]
  residual activity: 100%
[42]
  residual activity: 35%
[43]
  residual activity: 100%
[44]
  residual activity: 100%
[45]
  residual activity: 100%

## CC(=O)c1c(NS(C)(=O)=O)c2cc(-c3ccc(Cl)cc3)c(-c3ccc(Cl)cc3Cl)nc2n(C)c1=O [MRL-CB1-NC]
[1]
  residual activity: 100%
[2]
  residual activity: 100%
[3]
  residual activity: 100%
[4]
  residual activity: 91%
[5]
  residual activity: 92%
[6]
  residual activity: 100%
[7]
  residual activity: 73%
[8]
  residual activity: 93%
[9]
  inhibition: 39.9%
[10]
  residual activity: 100%
[11]
  residual activity: 100%
[12]
  residual activity: 100%
[13]
  residual activity: 99%
[14]
  residual activity: 100%
[15]
  residual activity: 99%
[16]
  residual activity: 84%
[17]
  residual activity: 90%
[18]
  residual activity: 100%
[19]
  residual activity: 100%
[20]
  residual activity: 92%
[21]
  residual activity: 98%
[22]
  residual activity: 100%
[23]
  residual activity: 100%
[24]
  residual activity: 90%
[25]
  residual activity: 100%
[26]
  residual activity: 100%
[27]
  residual activity: 100%
[28]
  residual activity: 81%
[29]
  residual activity: 100%
[30]
  residual activity: 76%
[31]
  residual activity: 100%
[32]
  residual activity: 94%
[33]
  residual activity: 100%
[34]
  residual activity: 89%
[35]
  residual activity: 75%
[36]
  residual activity: 100%
[37]
  residual activity: 92%
[38]
  residual activity: 98%
[39]
  residual activity: 100%
[40]
  residual activity: 92%
[41]
  residual activity: 100%
[42]
  residual activity: 100%
[43]
  residual activity: 91%
[44]
  residual activity: 100%
[45]
  residual activity: 100%
